Measured values taken from publication PMC10794144, “A novel antibiotic class targeting the lipopolysaccharide transporter” (Nature, 2024).
Where two headings read alike, the source gives them in different places.

Key:
Assay in all cases: Off-target screening (CEREP)
Format in all cases: binding
Settings in all cases: read-out: percent inhibition
Alpha1A-adrenoreceptor = target: T1, Alpha1A-adrenoreceptor (Homo sapiens, UniProt P35348)
T1 construct: purchased Eurofins CEREP SA
T1 sequence (P35348 1-466): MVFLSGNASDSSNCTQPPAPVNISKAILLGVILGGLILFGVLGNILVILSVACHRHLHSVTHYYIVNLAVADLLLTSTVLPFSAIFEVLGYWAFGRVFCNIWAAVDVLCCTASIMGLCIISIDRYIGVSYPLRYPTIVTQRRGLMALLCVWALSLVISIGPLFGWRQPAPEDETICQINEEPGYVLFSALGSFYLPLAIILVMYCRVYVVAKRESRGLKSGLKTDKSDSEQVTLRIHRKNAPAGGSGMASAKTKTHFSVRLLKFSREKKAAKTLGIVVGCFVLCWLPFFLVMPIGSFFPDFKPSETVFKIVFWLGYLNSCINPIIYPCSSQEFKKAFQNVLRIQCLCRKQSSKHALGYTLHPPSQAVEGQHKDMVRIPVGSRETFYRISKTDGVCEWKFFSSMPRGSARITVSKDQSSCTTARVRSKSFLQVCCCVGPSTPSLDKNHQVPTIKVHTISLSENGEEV
Description: (§1) Supplementary Table 1 │ Off-target activity screening f or MCP compou nds […]
(§2) The assays given in the table above were conducted at Eurofins CEREP S A (Celle-Lévescault, France) and were run as single point measurements in duplicates in the presence of 10 µ M of the test compound and reported as percent inhibition of the radioligand signal or control enzymatic activity. n.d., not

Prostaglandin F receptor = target: T2, Prostaglandin F receptor (Homo sapiens, UniProt P43088)
T2 construct: purchased Eurofins CEREP SA
Description: as §1, §2

Dopamine D1 receptor = target: T3, Dopamine D1 receptor (Homo sapiens, UniProt P21728)
T3 construct: purchased Eurofins CEREP SA
Description: as §1, §2

Androgen receptor = target: T4, Androgen receptor (Homo sapiens, UniProt P10275)
T4 construct: purchased Eurofins CEREP SA
T4 sequence (P10275 1-920): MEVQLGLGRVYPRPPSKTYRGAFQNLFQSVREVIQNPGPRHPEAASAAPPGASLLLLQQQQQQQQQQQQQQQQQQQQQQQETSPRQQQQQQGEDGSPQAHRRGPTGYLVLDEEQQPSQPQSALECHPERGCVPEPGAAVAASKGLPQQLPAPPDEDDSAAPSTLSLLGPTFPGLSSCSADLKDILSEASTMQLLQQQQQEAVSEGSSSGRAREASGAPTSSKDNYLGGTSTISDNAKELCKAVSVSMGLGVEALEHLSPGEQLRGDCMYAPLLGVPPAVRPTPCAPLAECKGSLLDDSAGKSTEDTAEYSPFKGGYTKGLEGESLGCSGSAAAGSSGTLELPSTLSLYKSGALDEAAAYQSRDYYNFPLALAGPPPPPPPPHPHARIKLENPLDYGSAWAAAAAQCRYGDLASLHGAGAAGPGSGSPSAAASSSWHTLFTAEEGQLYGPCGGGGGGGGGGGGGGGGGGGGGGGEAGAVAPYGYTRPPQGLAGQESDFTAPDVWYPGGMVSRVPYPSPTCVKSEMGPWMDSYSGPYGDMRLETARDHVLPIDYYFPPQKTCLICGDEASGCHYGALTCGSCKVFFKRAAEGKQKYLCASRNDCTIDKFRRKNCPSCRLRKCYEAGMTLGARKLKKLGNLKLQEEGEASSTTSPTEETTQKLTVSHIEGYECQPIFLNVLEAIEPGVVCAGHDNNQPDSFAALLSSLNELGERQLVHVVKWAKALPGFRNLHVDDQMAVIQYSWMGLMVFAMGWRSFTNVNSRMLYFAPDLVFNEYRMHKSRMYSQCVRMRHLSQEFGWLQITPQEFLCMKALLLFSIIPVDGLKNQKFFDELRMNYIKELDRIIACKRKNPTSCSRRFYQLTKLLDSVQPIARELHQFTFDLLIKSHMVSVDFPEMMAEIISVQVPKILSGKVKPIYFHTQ
Description: as §1, §2

5HT2B = target: T5, 5HT2B (Homo sapiens, UniProt P41595)
T5 construct: purchased Eurofins CEREP SA
Description: as §1, §2

5-HT transporter = target: T6, 5-HT transporter (Homo sapiens, UniProt P31645)
T6 construct: purchased Eurofins CEREP SA
Description: as §1, §2

5HT2A = target: T7, 5HT2A (Homo sapiens, UniProt P28223)
T7 construct: purchased Eurofins CEREP SA
Description: as §1, §2

Alpha2A-adrenoreceptor = target: T8, Alpha2A-adrenoreceptor (Homo sapiens, UniProt P08913)
T8 construct: purchased Eurofins CEREP SA
T8 sequence (P08913 1-465): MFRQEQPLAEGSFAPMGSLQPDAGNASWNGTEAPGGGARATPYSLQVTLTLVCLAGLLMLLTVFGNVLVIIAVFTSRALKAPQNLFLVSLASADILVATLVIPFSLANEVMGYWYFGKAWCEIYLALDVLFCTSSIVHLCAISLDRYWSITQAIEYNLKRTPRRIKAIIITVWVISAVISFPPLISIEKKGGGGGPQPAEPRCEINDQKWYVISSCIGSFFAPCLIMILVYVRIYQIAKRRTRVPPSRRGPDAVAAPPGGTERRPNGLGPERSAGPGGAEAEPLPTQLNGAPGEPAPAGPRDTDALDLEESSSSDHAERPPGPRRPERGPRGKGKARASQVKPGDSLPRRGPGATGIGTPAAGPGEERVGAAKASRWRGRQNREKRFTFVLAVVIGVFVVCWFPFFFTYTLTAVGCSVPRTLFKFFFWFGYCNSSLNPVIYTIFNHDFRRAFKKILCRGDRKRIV
Description: as §1, §2

Histamine H1 receptor = target: T9, Histamine H1 receptor (Homo sapiens, UniProt P35367)
T9 construct: purchased Eurofins CEREP SA
Description: as §1, §2

[1] = target: T10, Cholecystokinin 1 receptor (Homo sapiens, UniProt P32238)
T10 construct: purchased Eurofins CEREP SA
T10 sequence (P32238 1-428): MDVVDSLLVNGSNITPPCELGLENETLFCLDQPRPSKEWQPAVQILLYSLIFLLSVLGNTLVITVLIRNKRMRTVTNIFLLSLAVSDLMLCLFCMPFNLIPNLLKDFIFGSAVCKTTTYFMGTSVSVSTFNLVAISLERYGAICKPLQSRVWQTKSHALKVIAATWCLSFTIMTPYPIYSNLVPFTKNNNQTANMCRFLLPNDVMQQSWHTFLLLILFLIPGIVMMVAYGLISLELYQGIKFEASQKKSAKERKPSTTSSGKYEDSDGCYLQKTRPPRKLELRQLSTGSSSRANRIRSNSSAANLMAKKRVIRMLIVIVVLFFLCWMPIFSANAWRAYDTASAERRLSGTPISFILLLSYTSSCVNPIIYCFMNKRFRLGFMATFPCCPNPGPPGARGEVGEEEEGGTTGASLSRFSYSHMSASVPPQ
Description: as §1, §2

T5 sequence (P41595 whole entry): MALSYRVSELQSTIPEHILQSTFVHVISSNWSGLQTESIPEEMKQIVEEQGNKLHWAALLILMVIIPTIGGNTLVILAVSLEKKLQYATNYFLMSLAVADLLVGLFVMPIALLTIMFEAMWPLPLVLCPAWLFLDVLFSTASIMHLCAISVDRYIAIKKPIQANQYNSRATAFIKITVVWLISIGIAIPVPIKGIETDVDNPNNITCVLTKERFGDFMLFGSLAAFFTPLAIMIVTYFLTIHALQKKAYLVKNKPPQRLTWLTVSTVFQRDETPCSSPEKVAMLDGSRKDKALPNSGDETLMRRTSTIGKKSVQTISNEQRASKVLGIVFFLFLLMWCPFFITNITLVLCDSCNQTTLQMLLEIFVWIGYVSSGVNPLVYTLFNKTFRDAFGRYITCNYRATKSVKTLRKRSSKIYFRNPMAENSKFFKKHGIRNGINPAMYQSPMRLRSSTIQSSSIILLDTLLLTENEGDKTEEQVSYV
T9 sequence (P35367 whole entry): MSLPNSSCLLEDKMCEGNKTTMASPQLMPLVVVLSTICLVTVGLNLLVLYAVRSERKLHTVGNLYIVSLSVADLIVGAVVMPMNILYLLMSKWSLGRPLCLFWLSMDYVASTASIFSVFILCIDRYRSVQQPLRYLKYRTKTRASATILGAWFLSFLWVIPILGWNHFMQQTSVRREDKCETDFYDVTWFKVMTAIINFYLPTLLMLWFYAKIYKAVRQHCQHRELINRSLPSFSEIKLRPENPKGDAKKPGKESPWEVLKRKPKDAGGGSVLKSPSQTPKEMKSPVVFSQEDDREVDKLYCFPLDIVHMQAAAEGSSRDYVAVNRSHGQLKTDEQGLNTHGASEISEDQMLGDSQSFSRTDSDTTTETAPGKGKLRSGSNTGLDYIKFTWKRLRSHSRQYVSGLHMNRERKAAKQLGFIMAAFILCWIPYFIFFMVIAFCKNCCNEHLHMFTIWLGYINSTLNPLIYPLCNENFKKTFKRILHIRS
T7 sequence (P28223 whole entry): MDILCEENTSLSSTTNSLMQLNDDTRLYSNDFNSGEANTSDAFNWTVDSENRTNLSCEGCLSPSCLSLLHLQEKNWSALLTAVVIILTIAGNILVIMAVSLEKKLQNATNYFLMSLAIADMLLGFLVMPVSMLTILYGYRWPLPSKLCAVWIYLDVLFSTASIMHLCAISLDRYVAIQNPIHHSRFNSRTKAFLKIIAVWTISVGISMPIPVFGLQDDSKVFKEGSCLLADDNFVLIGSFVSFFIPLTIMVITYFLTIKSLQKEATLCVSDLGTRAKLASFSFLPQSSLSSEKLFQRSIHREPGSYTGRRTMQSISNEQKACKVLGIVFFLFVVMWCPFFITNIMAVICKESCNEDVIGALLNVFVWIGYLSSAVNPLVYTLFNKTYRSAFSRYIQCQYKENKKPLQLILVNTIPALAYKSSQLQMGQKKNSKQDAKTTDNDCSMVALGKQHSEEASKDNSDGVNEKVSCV
T6 sequence (P31645 whole entry): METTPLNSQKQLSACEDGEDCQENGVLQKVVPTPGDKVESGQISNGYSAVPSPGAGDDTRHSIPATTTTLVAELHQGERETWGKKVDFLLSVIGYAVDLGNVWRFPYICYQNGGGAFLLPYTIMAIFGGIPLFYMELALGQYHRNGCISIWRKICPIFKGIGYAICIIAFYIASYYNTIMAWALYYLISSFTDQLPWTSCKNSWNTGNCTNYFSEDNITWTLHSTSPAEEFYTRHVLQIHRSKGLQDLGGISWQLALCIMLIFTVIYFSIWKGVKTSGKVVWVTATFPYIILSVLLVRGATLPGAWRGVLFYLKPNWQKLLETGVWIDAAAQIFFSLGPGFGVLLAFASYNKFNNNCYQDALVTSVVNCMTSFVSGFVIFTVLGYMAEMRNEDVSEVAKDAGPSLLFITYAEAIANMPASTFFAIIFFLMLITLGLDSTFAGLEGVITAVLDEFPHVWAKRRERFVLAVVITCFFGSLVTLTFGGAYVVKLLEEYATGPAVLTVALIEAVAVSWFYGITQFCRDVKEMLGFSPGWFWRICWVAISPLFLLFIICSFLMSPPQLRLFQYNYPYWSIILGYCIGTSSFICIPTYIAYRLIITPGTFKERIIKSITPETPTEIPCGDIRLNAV
T2 sequence (P43088 whole entry): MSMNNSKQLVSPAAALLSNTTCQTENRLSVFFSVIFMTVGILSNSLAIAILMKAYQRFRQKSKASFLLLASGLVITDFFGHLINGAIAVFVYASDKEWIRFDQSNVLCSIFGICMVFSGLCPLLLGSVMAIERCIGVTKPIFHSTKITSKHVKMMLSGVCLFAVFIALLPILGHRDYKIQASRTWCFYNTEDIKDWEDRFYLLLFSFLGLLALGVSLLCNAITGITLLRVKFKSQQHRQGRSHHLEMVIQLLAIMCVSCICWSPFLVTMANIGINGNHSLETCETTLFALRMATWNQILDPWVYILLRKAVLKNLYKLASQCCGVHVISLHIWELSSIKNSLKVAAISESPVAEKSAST
T3 sequence (P21728 whole entry): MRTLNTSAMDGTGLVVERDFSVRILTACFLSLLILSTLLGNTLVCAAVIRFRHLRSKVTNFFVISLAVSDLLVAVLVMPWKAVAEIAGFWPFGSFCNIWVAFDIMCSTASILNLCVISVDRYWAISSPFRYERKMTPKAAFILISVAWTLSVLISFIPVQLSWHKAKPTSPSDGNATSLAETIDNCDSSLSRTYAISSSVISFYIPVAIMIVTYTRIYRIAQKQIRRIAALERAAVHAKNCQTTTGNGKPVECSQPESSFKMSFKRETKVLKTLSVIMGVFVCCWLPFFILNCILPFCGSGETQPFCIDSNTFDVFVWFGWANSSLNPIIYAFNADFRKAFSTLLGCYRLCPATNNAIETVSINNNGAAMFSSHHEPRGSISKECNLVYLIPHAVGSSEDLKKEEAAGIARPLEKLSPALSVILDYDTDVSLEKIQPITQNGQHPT

Structure (SMILES)	inhibition at 10 µM (Alpha1A-adrenoreceptor; 10 µM, duplicates) [%]	inhibition at 10 µM (Prostaglandin F receptor; 10 µM, duplicates) [%]	inhibition at 10 µM (Dopamine D1 receptor; 10 µM, duplicates) [%]	inhibition at 10 µM (Androgen receptor; 10 µM, duplicates) [%]	inhibition at 10 µM (5HT2B; 10 µM, duplicates) [%]	inhibition at 10 µM (5-HT transporter; 10 µM, duplicates) [%]	inhibition at 10 µM (5HT2A; 10 µM, duplicates) [%]	inhibition at 10 µM (Alpha2A-adrenoreceptor; 10 µM, duplicates) [%]	inhibition at 10 µM (Histamine H1 receptor; 10 µM, duplicates) [%]	inhibition at 10 µM ([1]; 10 µM, duplicates) [%]	inhibition at 10 µM (Alpha1A-adrenoreceptor) [%]	inhibition at 10 µM (Prostaglandin F receptor) [%]	inhibition at 10 µM (Dopamine D1 receptor) [%]	inhibition at 10 µM (Androgen receptor) [%]	inhibition at 10 µM (5HT2B) [%]	inhibition at 10 µM (5-HT transporter) [%]	inhibition at 10 µM (5HT2A) [%]	inhibition at 10 µM (Alpha2A-adrenoreceptor) [%]	inhibition at 10 µM (Histamine H1 receptor) [%]	inhibition at 10 µM [1] [%]
CN1C(=O)[C@H](CCCN)NC(=O)[C@H](CCCN)NCc2ccccc2Sc2ccccc2CNC(=O)[C@@H]1Cc1c[nH]c2ccccc12 [RO7036668]	15	2	27	6	27	13	-2	-2	16	22										
CN1C(=O)[C@H](CCCCN)NC(=O)[C@H](CCCN)NCc2cccnc2Sc2c(Cl)ccc(Cl)c2CNC(=O)[C@@H]1Cc1c[nH]c2ccccc12 [RO7075573]											22	-4	8	-4	1	16	-17	-5	4	32
CN1C(=O)[C@H](CCCCN)NC(=O)[C@H](CCCN)NCc2cccnc2Sc2c(Cl)ccc(-c3ccc(C(=O)O)cc3)c2CNC(=O)[C@@H]1Cc1c[nH]c2ccccc12 [RO7202110]	7	-3	-7	3	14	13	4	-2	-3	0										
CN1C(=O)[C@H](CCCCN)NC(=O)[C@H](CCCN)NCc2cccnc2Sc2cccc(-c3ccc(C(=O)O)cc3)c2CNC(=O)[C@@H]1Cc1c[nH]c2ccccc12 [zosurabalpin]											7	5	-3	-5	-1	2	3	4	-4	-1
